Data on eight compounds can be found in ChEMBL document CHEMBL5634099, “Pyrrole-thiazolidinone hybrids as a new structural class of broad-spectrum anti-infectives” (Eur J Med Chem, 2023).

The structures appear in SMILES notation. Values after ≈ are worked out from the molar mass of the structure shown. Bounds are passed on as bounds.

Common to all, as to type: functional
The subject of one assay is Mycobacteroides chelonae. Kind of assay: Antimycobacterial activity against Mycobacteroides chelonae ATCC 35752 assessed as bacterial growth inhibition incubated for 7 days by resazurin dye based assay. The following applies: ATCC 35752, 168 h, time 7 day.
In the next assay the test system is Escherichia coli. Kind of assay: Antibacterial activity against Escherichia coli ATCC 25922 assessed as bacterial growth inhibition incubated for 16 to 18 hrs by CLSI based susceptibility testing method. The following applies: time 16-18 hrs.
Assay [1] relates to Mycobacteroides abscessus. Kind of assay: Antimycobacterial activity against Mycobacterium abscessus ATCC 19977 assessed as bacterial growth inhibition incubated for 7 days by resazurin dye based assay. As to conditions: ATCC 19977, 168 h, time 7 day.
Assay [2] relates to Staphylococcus aureus. Kind of assay: Antibacterial activity against Staphylococcus aureus ATCC 29213 assessed as bacterial growth inhibition incubated for 16 to 18 hrs by CLSI based susceptibility testing method. As to conditions: time 16-18 hrs.
In another assay the test system is Pseudomonas aeruginosa. Nature of the assay: Antibacterial activity against Pseudomonas aeruginosa ATCC 27853 assessed as bacterial growth inhibition incubated for 16 to 18 hrs by CLSI based susceptibility testing method. As to conditions: time 16-18 hrs.
The subject of assay [3] is Mycobacterium tuberculosis. Kind of assay: Antimycobacterial activity against Mycobacterium tuberculosis H37Rv ATCC 27294 assessed as bacterial growth inhibition incubated for 7 days by resazurin dye based assay. As to conditions: H37Rv ATCC 27294, 168 h, time 7 day.
In assay [4] the test system is Mycolicibacterium fortuitum. Nature of the assay: Antimycobacterial activity against Mycobacterium fortuitum ATCC 6841 assessed as bacterial growth inhibition incubated for 7 days by resazurin dye based assay. As to conditions: ATCC 6841, 168 h, time 7 day. On the technique in general: The colour change of resazurin is a common sign of viable cells or microbes.
The test system of a further assay is Klebsiella pneumoniae. Nature of the assay: Antibacterial activity against Klebsiella pneumoniae BAA 1705 assessed as bacterial growth inhibition incubated for 16 to 18 hrs by CLSI based susceptibility testing method. The following applies: time 16-18 hrs.
A further assay deals with Acinetobacter baumannii. Kind of assay: Antibacterial activity against Acinetobacter baumannii BAA 1605 assessed as bacterial growth inhibition incubated for 16 to 18 hrs by CLSI based susceptibility testing method. The following applies: time 16-18 hrs.
Assay [5] has as its system Staphylococcus aureus. Nature of the assay: Antibacterial activity against methicillin-resistant Staphylococcus aureus NR 100 clinical isolate assessed as bacterial growth inhibition incubated for 16 to 18 hrs by CLSI based susceptibility testing method. The following applies: time 16-18 hrs.
Assay [6] deals with Staphylococcus aureus. Nature of the assay: Antibacterial activity against methicillin-resistant Staphylococcus aureus NR 192 clinical isolate assessed as bacterial growth inhibition incubated for 16 to 18 hrs by CLSI based susceptibility testing method. The following applies: time 16-18 hrs.
Assay [7] relates to Staphylococcus aureus. Kind of assay: Antibacterial activity against vancomycin-resistant Staphylococcus aureus VRS 12 clinical isolate assessed as bacterial growth inhibition incubated for 16 to 18 hrs by CLSI based susceptibility testing method. The following applies: time 16-18 hrs.
The subject of assay [8] is Staphylococcus aureus. Kind of assay: Antibacterial activity against vancomycin-resistant Staphylococcus aureus VRS 4 clinical isolate assessed as bacterial growth inhibition incubated for 16 to 18 hrs by CLSI based susceptibility testing method. The following applies: time 16-18 hrs.
Assay [9] deals with Staphylococcus aureus. Kind of assay: Antibacterial activity against methicillin-resistant Staphylococcus aureus NR 194 clinical isolate assessed as bacterial growth inhibition incubated for 16 to 18 hrs by CLSI based susceptibility testing method. As to conditions: time 16-18 hrs.
Assay [10] has as its system Staphylococcus aureus. Kind of assay: Antibacterial activity against methicillin-resistant Staphylococcus aureus NR 186 clinical isolate assessed as bacterial growth inhibition incubated for 16 to 18 hrs by CLSI based susceptibility testing method. As to conditions: time 16-18 hrs.
The test system of assay [11] is Staphylococcus aureus. Kind of assay: Antibacterial activity against methicillin-resistant Staphylococcus aureus NR 191 clinical isolate assessed as bacterial growth inhibition incubated for 16 to 18 hrs by CLSI based susceptibility testing method. As to conditions: time 16-18 hrs.
Assay [12] has as its system Staphylococcus aureus. Kind of assay: Antibacterial activity against methicillin-resistant Staphylococcus aureus NR 198 clinical isolate assessed as bacterial growth inhibition incubated for 16 to 18 hrs by CLSI based susceptibility testing method. As to conditions: time 16-18 hrs.
The subject of assay [13] is Staphylococcus aureus. Nature of the assay: Antibacterial activity against methicillin-resistant Staphylococcus aureus NR 119 clinical isolate assessed as bacterial growth inhibition incubated for 16 to 18 hrs by CLSI based susceptibility testing method. The following applies: time 16-18 hrs.
Assay [14] has as its system Staphylococcus aureus. Kind of assay: Antibacterial activity against vancomycin-resistant Staphylococcus aureus VRS 1 clinical isolate assessed as bacterial growth inhibition incubated for 16 to 18 hrs by CLSI based susceptibility testing method. As to conditions: time 16-18 hrs.
Assay [15] deals with Staphylococcus aureus. Kind of assay: Antibacterial activity against methicillin-sensitive Staphylococcus aureus ATCC 29213 clinical isolate assessed as bacterial growth inhibition incubated for 16 to 18 hrs by CLSI based susceptibility testing method. The following applies: time 16-18 hrs.
Assay [16] concerns Staphylococcus aureus. Nature of the assay: Antibacterial activity against methicillin-resistant Staphylococcus aureus NR 193 clinical isolate assessed as bacterial growth inhibition incubated for 16 to 18 hrs by CLSI based susceptibility testing method. As to conditions: time 16-18 hrs.
The test system of assay [17] is Staphylococcus aureus. Nature of the assay: Antibacterial activity against methicillin-resistant Staphylococcus aureus NR 129 clinical isolate assessed as bacterial growth inhibition incubated for 16 to 18 hrs by CLSI based susceptibility testing method. The following applies: time 16-18 hrs.

The MIC is the lowest concentration found to suppress growth. `Cc1nc(/N=C2\NC(=O)/C(=C/c3cc(C)n(-c4ccc(N5CCOCC5)cc4)c3C)S2)sc1C`: the MIC in the assay with Mycobacteroides chelonae was more than 64 µg/mL; in the assay with Escherichia coli it was more than 64 µg/mL; in assay [1] it was more than 64 µg/mL; in the assay with Staphylococcus aureus [2] it was 64 µg/mL (≈ 130 µM); in the assay with Pseudomonas aeruginosa, more than 64 µg/mL; in [3], more than 64 µg/mL. Moreover, the MIC (in assay [4]; in the assay with Klebsiella pneumoniae; in the assay with Acinetobacter baumannii) was more than 64 µg/mL throughout.
`Cc1nc(/N=C2\NC(=O)/C(=C/c3cc(C)n(-c4cccc(F)c4)c3C)S2)sc1C`: the minimal inhibitory concentration (MIC) is more than 64 µg/mL in the assay on Mycobacteroides chelonae; more than 64 µg/mL in the assay on Escherichia coli; more than 64 µg/mL in assay [1]; more than 64 µg/mL in the assay with Staphylococcus aureus [2]; more than 64 µg/mL in the assay with Pseudomonas aeruginosa; 64 µg/mL (≈ 150 µM) in assay [3]. The MIC (in assay [4]; in the assay on Klebsiella pneumoniae; with Acinetobacter baumannii) was more than 64 µg/mL throughout.
With `Cc1nc(/N=C2\NC(=O)/C(=C/c3cc(C)n(-c4ccccc4O)c3C)S2)sc1C`, the MIC (in the assay with Mycobacteroides chelonae; with Escherichia coli; in assay [1]; with Staphylococcus aureus [2]; with Pseudomonas aeruginosa; in [3]) was more than 64 µg/mL in each case. For the same compound, the MIC (in assay [4]; with Klebsiella pneumoniae; in the assay with Acinetobacter baumannii) was more than 64 µg/mL each time.
For `Cc1nc(/N=C2\NC(=O)/C(=C/c3cc(C)n(-c4ccccc4Cl)c3C)S2)sc1C`, the MIC with Mycobacteroides chelonae was more than 64 µg/mL; in the assay with Escherichia coli, more than 64 µg/mL; in assay [1] it was more than 64 µg/mL; in the assay on Staphylococcus aureus [2], more than 64 µg/mL; in the assay with Pseudomonas aeruginosa, more than 64 µg/mL; in [3], 2 µg/mL (≈ 4.51 µM). In addition, the MIC (in assay [4]; in the assay on Klebsiella pneumoniae; with Acinetobacter baumannii) was more than 64 µg/mL in each case.
As to `Cc1nc(/N=C2\NC(=O)/C(=C/c3cc(C)n(-c4ccc(F)cc4)c3C)S2)sc1C`, the MIC with Mycobacteroides chelonae is more than 64 µg/mL; with Escherichia coli, more than 64 µg/mL; in assay [1] it was more than 64 µg/mL; in the assay with Staphylococcus aureus [2], more than 64 µg/mL; in the assay with Pseudomonas aeruginosa it was more than 64 µg/mL; in assay [3] it was 16 µg/mL (≈ 37.5 µM). The MIC (in assay [4]; in the assay on Klebsiella pneumoniae; in the assay on Acinetobacter baumannii) was more than 64 µg/mL throughout.
With `Cc1ccc(-n2c(C)cc(/C=C3\S/C(=N/c4nc(C)c(C)s4)NC3=O)c2C)cc1C`, the MIC was more than 64 µg/mL in the assay with Mycobacteroides chelonae; more than 64 µg/mL in the assay with Escherichia coli; more than 64 µg/mL in [1]; more than 64 µg/mL in the assay on Staphylococcus aureus [2]; more than 64 µg/mL in the assay on Pseudomonas aeruginosa; 4 µg/mL (≈ 9.16 µM) in [3]. The MIC (in assay [4]; in the assay with Klebsiella pneumoniae; in the assay with Acinetobacter baumannii) was more than 64 µg/mL throughout.
With `C[C@@H](O)[C@H]1C(=O)N2C(C(=O)O)=C(S[C@@H]3CN[C@H](C(=O)N(C)C)C3)[C@H](C)[C@H]12` [MEROPENEM], the MIC is 32 µg/mL (≈ 83.4 µM) in the assay on Staphylococcus aureus [5]; 8 µg/mL (≈ 20.9 µM) in the assay on Staphylococcus aureus [6]; 4 µg/mL (≈ 10.4 µM) in the assay with Staphylococcus aureus [7]; 32 µg/mL (≈ 83.4 µM) in the assay with Staphylococcus aureus [8]; 1 µg/mL (≈ 2.61 µM) with Staphylococcus aureus [9]; 4 µg/mL (≈ 10.4 µM) with Staphylococcus aureus [10]. The MIC in the assay on Staphylococcus aureus [11] was found to be 32 µg/mL (≈ 83.4 µM); in the assay with Staphylococcus aureus [12] it was 32 µg/mL (≈ 83.4 µM); in the assay with Staphylococcus aureus [13] it was 64 µg/mL (≈ 167 µM); with Staphylococcus aureus [14] it was 64 µg/mL (≈ 167 µM); in the assay on Staphylococcus aureus [15], 0.125 µg/mL (≈ 0.326 µM); in the assay with Staphylococcus aureus [16], 64 µg/mL (≈ 167 µM). The MIC with Staphylococcus aureus [17] came to 2 µg/mL (≈ 5.22 µM).
For the compound `COc1cccc(OC)c1C(=O)N[C@@H]1C(=O)N2[C@@H]1SC(C)(C)[C@@H]2C(=O)O` [METHICILLIN], the MIC was more than 64 µg/mL in the assay with Staphylococcus aureus [5]; more than 64 µg/mL in the assay on Staphylococcus aureus [6]; more than 64 µg/mL with Staphylococcus aureus [7]; more than 64 µg/mL in the assay on Staphylococcus aureus [8]; 32 µg/mL (≈ 84.1 µM) with Staphylococcus aureus [9]; 64 µg/mL (≈ 168 µM) in the assay with Staphylococcus aureus [10]. Further, the MIC was more than 64 µg/mL in the assay on Staphylococcus aureus [11]; more than 64 µg/mL in the assay on Staphylococcus aureus [12]; more than 64 µg/mL in the assay with Staphylococcus aureus [13]; more than 64 µg/mL in the assay on Staphylococcus aureus [14]; 1 µg/mL (≈ 2.63 µM) with Staphylococcus aureus [15]; more than 64 µg/mL in the assay on Staphylococcus aureus [16]. Further, the MIC in the assay on Staphylococcus aureus [17] turned out to be 32 µg/mL (≈ 84.1 µM).
